Reference: patent US10730840B2, “Substituted tetrahydroisoquinoline ethylbenzamide anti-cancer agents” (Florida A&M University, priority 2017, dated 2020)

Columns and labels:
[1] = test system: MCF-7 (ER positive breast cancer cell line); assay: CellTiter-Glo antiproliferative activity, MCF-7 cell line; type: cell-based, human; details: for IC50: Homo sapiens, MCF7, Table 1, read-out: IC50 MCF-7
From the text: (§1) Numerous substituted THIQs were systematically synthesized employing molecular design and structure activity relationship studies (Suresh et al., (2014) Lett. Drug Design & Discov. 11: 428-436; Gangapuram et al., (2014) J. Cancer Sci. Ther. 6: 161-169). The compounds' cytotoxic effects on MCF-7 (estrogen receptor positive breast cancer) cell lines, MDA-MB-231 (estrogen receptor negative breast cancer) cell lines and Ishikawa cell lines using CellTiter-Glo (CTG) luminescent cell viability essay were studied. The tests were done on different concentrations of the compounds ranging from 0.01 to 100,000 nM on 5000 MCF-7 cells/well, on 5000 MDA-MB-231 cells/well and on 5000 Ishikawa cells/well. Drug exposed cells were incubated at 37° C. for three days followed by CTG assay. Then IC50 values were generated from Graph Pad Prism 4.
(§2) Chemistry: Several substituted tetrahydroisoquinolines 2d-2m, 3h, 3k, 3l, and 4a-4f were prepared according to three different procedures as shown in Schemes 1, 2 and 3 (FIGS. 2-4). […] The aminating agent 10 was prepared using a reported procedure (Tamura et al., (1972) J. Org. Chem. 40: 4133-4135). The amino salts of ring substituted 2-aminoisoquinolinium mesitylenesulfonates of general structure 11 used in the present study were prepared by the reaction of substituted isoquinolines and the aminating agent 10 as previously reported (Gangapuram et al., (2014) J. Cancer Sci. Ther. 6: 161-169). […] The aminating agent 13 was prepared using a reported procedure (Legault & Charette (2003) J. Org. Chem. 68: 7119-7122). The amino salts of ring substituted 2-aminoisoquinolinium compounds of general structure 14 were obtained with the reaction of the substituted isoquinolines and the aminating agent 13 in CH3CN heated at 50° C. for 24 hours. Without further purification, the salts were used to prepare the N-ylides by reaction with substituted acyl/sulfonyl chlorides. […] N-Oxidation of commercially available ring substituted THIQs followed by the reduction of the NO group using standard zinc/acetic acid led to the synthesis of N-amino THIQs.
(§3) The antiproliferative activities of substituted tetrahydroisoquinolines 2a-2m, 3a-3l and 4a-4f were evaluated according to the procedure reported previously (Crouch et al., (1993) J. Immunol. Methods 160: 81-88).
(§4) Human MCF-7 and MDA-MB-231 breast cancer cell lines were purchased from the NCI. The human Ishikawa endometrial cancer cell line was purchased from Sigma Aldrich. All three cell lines were cultured in phenol red-free RPMI-1640 (Hyclone) (500 mL) supplemented with L-glutamine-dipeptide (Hyclone) (5 mL), and 10% fetal bovine serum (Atlanta Biologicals) (50 mL).
(§5) The cell lines were cultured and treated with compounds under study including the standard TAM ranging from 0.01 nM to 100,000 nM concentration in the presence of 10 nM estradiol using the previous reported method (Suresh et al., (2014) Lett. Drug Des. Discov. 11: 428-436).
(§6) The amount of ATP is determined using a system based on luciferase and D-luciferin resulting in light generation.

[2] = test system: Ishikawa (endometrial) cancer cell line; assay: CellTiter-Glo antiproliferative activity, Ishikawa cell line; type: cell-based, human; details: 72 h exposure, in the presence of 10 nM estradiol; for IC50: Homo sapiens, Ishikawa, Table 1, read-out: IC50 Ishikawa
From the text: as §1, with “4. […]” for “4.”
as §3, §4, §5, §6

[3] = test system: MDA-MB-231 (ER negative breast carcinoma cell line); assay: CellTiter-Glo antiproliferative activity, MDA-MB-231 cell line; type: cell-based, human; details: 72 h exposure, in the presence of 10 nM estradiol; for IC50: Homo sapiens, MDA-MB-231, Table 1
From the text: as §1, §2, §3, §4, §5

[4] = test system: MCF-7, MDA-MB-231, and Ishikawa cell lines; assay: Antiproliferative activity, summary statements over the three cell lines; type: cell-based, human; details: MCF-7, MDA-MB-231 and Ishikawa cell lines together
From the text: as §1, §2, §3, §4, §5

microtubule network = details: Gangapuram et al. (2014); cited from earlier work
[5] = 72 h exposure, in the presence of 10 nM estradiol

| IC50 [1, 5] | melting point | IC50 [2] | IC50 [3] | IC50 against MCF-7 cell line [1, 5] | IC50 against Ishikawa cell line [2] | IC50 against MDA-MB-231 cell line [3] | SMILES | antiproliferative activity in words [4] | antiproliferative activity against MCF-7 cell line in words ([1]; based on IC50 value) | microtubule-destabilizing activity (microtubule network) |
| --- | --- | --- | --- | --- | --- | --- | --- | --- | --- | --- |
| > 50.5 µg/mL | 182 to 183 °C | > 50.5 µg/mL | > 50.5 µg/mL | – | – | – | COc1ccc(S(=O)(=O)NN2CCc3c(cccc3OS(=O)(=O)c3ccc(OC)cc3)C2)cc1 [Compound 3l, 2-(4-Methoxyphenylsulfonamido)-1,2,3,4-tetrahydroisoquinolin-5-yl-4-methoxybenzene-sulfonate] | completely inactive | – | – |
| > 38.2 µg/mL | 162 to 163 °C | 15 µg/mL | > 38.2 µg/mL | – | – | – | CCc1ccc(C(=O)NN2CCc3cc(OC)c(OC)cc3C2C(C)C)cc1 (stereo not drawn) [Compound 4c, 4-Ethyl-N-(1-isopropyl-6,7-dimethoxy-3,4-dihydroisoquinolin-2(1H)-yl)benzamide] | completely inactive | – | – |
| > 48.6 µg/mL | 150 to 152 °C | 45.6 µg/mL | > 48.6 µg/mL | – | – | – | CCc1ccc(C(=O)NN2CCc3cc(OC(=O)c4ccc(CC)cc4)ccc3C2C(=O)OC)cc1 (stereo not drawn) [Compound 4f, Methyl-2-(4-ethylbenzamido)-6-((4-ethylbenzoyl)oxy)-1,2,3,4-tetrahydroisoquinoline-1-carboxylate] | completely inactive | – | – |
| > 33.7 µg/mL | 295 to 297 °C | > 33.7 µg/mL | > 33.7 µg/mL | – | – | – | CCc1ccc(C(=O)NN2CCc3c(cccc3NC(C)=O)C2)cc1 [Compound 3d, N-(5-Acetamido-3,4-dihydroisoquinolin-2(1H)-yl)-4-ethylbenzamide] | completely inactive | – | – |
| 4.59 µg/mL | 216 to 218 °C | 9.45 µg/mL | 6.1 µg/mL | – | – | – | CCc1ccc(C(=O)Nc2cccc3c2CCN(NC(=O)c2ccc(CC)cc2)C3)cc1 [Compound 3c, N,N′-(3,4-Dihydroisoquinoline-2, 5(1H)-diyl)bis(4-ethylbenzamide)] | less active | – | – |
| 9.35 µg/mL | 113.2 to 116.4 °C | 2.74 µg/mL | 9.71 µg/mL | – | – | – | CCc1ccc(C(=O)Nc2cccc3c2CN(NC(=O)c2ccc(CC)cc2)CC3)cc1 [Compound 2j, N,N′-(3,4-dihydroisoquinoline-2,8(1H)-diyl)bis(4-ethylbenzamide)] | less active | – | – |
| – | – | – | – | 0.2 µg/mL | 0.08 µg/mL | 0.13 µg/mL | CCc1ccc(C(=O)NN2CCc3ccc(O)cc3C2)cc1 [Compound 2b] | more active than the lead structure (1) | very active | potent microtubule-destabilizing agent |
